From publication PMC6220849, “Mechanistic and structural studies of KDM‐catalysed demethylation of histone 1 isotype 4 at lysine 26” (Febs Letters, 2018)
Square brackets hold non-standard residues; d marks the D form. Ends that are not written are not given here. Lys(Me2) = CN(C)CCCC[C@H](N)C(=O)O

Legend:
[1] = molecular target: T1, recombinant human KDM4A (Homo sapiens, UniProt O75164); test: Formaldehyde dehydrogenase (FDH)-coupled demethylation assay, Michaelis–Menten kinetics; format: biochemical; details: peptide as substrate
T1 construct: recombinantly expressed as reported either in Escherichia coli (KDM2A1–557 25, KDM4A1–359 26); His6 (N); made in house; host or cells: Escherichia coli
T1 sequence (O75164 1-359): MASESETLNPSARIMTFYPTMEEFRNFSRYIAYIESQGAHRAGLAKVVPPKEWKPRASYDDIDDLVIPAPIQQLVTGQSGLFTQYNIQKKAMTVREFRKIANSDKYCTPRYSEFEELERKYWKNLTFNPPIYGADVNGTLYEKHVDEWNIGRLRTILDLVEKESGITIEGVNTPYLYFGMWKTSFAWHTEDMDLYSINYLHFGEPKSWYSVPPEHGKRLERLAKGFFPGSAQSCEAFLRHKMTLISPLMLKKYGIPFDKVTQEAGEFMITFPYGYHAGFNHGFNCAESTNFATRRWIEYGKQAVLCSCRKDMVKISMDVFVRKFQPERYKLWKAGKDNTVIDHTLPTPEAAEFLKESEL
Protocol: Kinetic parameters for KDM4 enzymes were determined by use of an FDH (formaldehyde dehydrogenase)/NAD^+‐coupled) assay for quantification of the formaldehyde reaction byproduct, as previously described 27. […] Specific activities were measured using a 100‐μM peptide. For Michaelis–Menten experiments, peptide concentrations were varied. Reactions were monitored using a PHERAstar FS plate reader (BMG Labtech, Ortenberg, Germany) with 355 nm excitation and 460 nm emission. Kinetic parameters were calculated from the reaction rate during the initial linear phase of formaldehyde production, which were used to calculate specific activities or fitted to Michaelis–Menten equations using […] PRISM (GraphPad Software, La Jolla, CA, USA).
Michaelis–Menten kinetics were then conducted with KDM4A. Samples containing KDM4A, 2OG, ascorbate, H1.4K26me3 peptide, NAD^+ and FDH were analysed over time and kinetic parameters were determined by recording the initial reaction rates of NADH production (corresponding to enzymatic production of formaldehyde) at varying peptide concentration.

[2] = tested on: KDM2A (KDM2A1–557); test: MALDI-TOF MS demethylation activity assay, KDM2A; format: biochemical, human; parameters: key: 🟢: Indicates that clear demethylation activity was observed; 🟡: Indicates that low level demethylation activity was observed (<10% conversion after 1 h); 🔴: Indicates no activity under the stated conditions (1 μM KDM, 10 μM peptide); 🟡*: *Indicates demethylation activity was only observed with 5 μM KDM; details: peptide as substrate, 1 μM KDM, 10 μM peptide, 50 mM HEPES pH 7.5, Fe(II) 10 μM, ascorbate 100 μM, 2OG 200 μM, 1 h at 37 °C
Protocol: (§1) Recombinant proteins (1 μM) were incubated with peptides (10 μM, sequences are given in Table S1) in 50 mM HEPES, pH 7.5 with addition of Fe(II) ammonium sulfate (10 μM), sodium ascorbate (100 μM) and 2‐oxoglutaric acid (200 μM). Reactions with KDM3A and KDM7A also contained 1 mM tris(2‐carboxyethyl)phosphine hydrochloride. No enzyme reactions were included as negative controls. Reactions were incubated for 1 h at 37 °C before being quenched with 1 : 1 (v/v) methanol. Analysis was carried out by MALDI‐TOF MS (Bruker, Billerica, MA, USA), with demethylation observed as mass shifts of 14 Da.
(§2) The propensity of human JmjC KDMs to catalyse demethylation at H1.4K26 was investigated using recombinant forms of the catalytic domains of representatives of each human JmjC KDM subfamily (KDM2‐7) and fragment peptides (Table S1) 37. Three peptides with identical sequences, corresponding to residues 18–32 of histone H1.4 (H2N‐[…]‐CONH2), but containing either a N ^ε‐tri‐, di‐ or monomethyllysine at K26 were synthesised (Fig. 1B and Table S1). Activity assays monitoring JmjC KDM‐catalysed demethylation of the peptides were then carried out; samples were prepared containing each peptide, 2‐oxoglutarate (2OG), ferrous iron, ascorbate and individual representatives from each JmjC KDM subfamily (KDM2A 38, KDM3A 21, KDM4E 22, KDM5C 39, 40, KDM6B 41, KDM7A 42).

[3] = tested on: KDM5C (KDM5C1–765); test: MALDI-TOF MS demethylation activity assay, KDM5C; format: biochemical, human; parameters: key: 🟢: Indicates that clear demethylation activity was observed; 🟡: Indicates that low level demethylation activity was observed (<10% conversion after 1 h); 🔴: Indicates no activity under the stated conditions (1 μM KDM, 10 μM peptide); 🟡*: *Indicates demethylation activity was only observed with 5 μM KDM; details: peptide as substrate, 1 μM KDM, 10 μM peptide, 50 mM HEPES pH 7.5, Fe(II) 10 μM, ascorbate 100 μM, 2OG 200 μM, 1 h at 37 °C
Protocol: as §1, §2

[4] = tested on: KDM4C (KDM4C1–359); test: MALDI-TOF MS demethylation activity assay, KDM4C; format: biochemical, human; parameters: key: 🟢: Indicates that clear demethylation activity was observed; 🟡: Indicates that low level demethylation activity was observed (<10% conversion after 1 h); 🔴: Indicates no activity under the stated conditions (1 μM KDM, 10 μM peptide); 🟡*: *Indicates demethylation activity was only observed with 5 μM KDM; details: peptide as substrate, 1 μM KDM, 10 μM peptide, 50 mM HEPES pH 7.5, Fe(II) 10 μM, ascorbate 100 μM, 2OG 200 μM, 1 h at 37 °C
Protocol: as §1
(§3) Given the activity observed with KDM4E and KDM7A, we decided to investigate the intra‐subfamily conservation of this demethylation activity. The demethylation activity of the other subfamily members (KDM4A‐D and KDM7B) was therefore screened. […] Note that as with H3K9, demethylation of the monomethylated H1.4K26 peptide was only observed with KDM4E, under the stated conditions 24.

[5] = tested on: KDM4E (KDM4E1–337); test: MALDI-TOF MS demethylation activity assay, KDM4E; format: biochemical, human; parameters: key: 🟢: Indicates that clear demethylation activity was observed; 🟡: Indicates that low level demethylation activity was observed (<10% conversion after 1 h); 🔴: Indicates no activity under the stated conditions (1 μM KDM, 10 μM peptide); 🟡*: *Indicates demethylation activity was only observed with 5 μM KDM; details: peptide as substrate, 1 μM KDM, 10 μM peptide, 50 mM HEPES pH 7.5, Fe(II) 10 μM, ascorbate 100 μM, 2OG 200 μM, 1 h at 37 °C
Protocol: as §1, §2

[6] = tested on: KDM7B (PHF8; KDM7B1–447); test: MALDI-TOF MS demethylation activity assay, KDM7B (PHF8); format: biochemical, human; parameters: key to demethylation activity on methylated H1.4 peptide: 🟢: Indicates that clear demethylation activity was observed; 🟡: Indicates that low level demethylation activity was observed (<10% conversion after 1 h); 🔴: Indicates no activity under the stated conditions (1 μM KDM, 10 μM peptide); 🟡*: *Indicates demethylation activity was only observed with 5 μM KDM; details: for demethylation at increased enzyme concentration (result in words): MALDI-TOF MS time course, KDM7B 5 μM, peptide 10 μM, 37 °C
Protocol: as §1, §3
(§4) N ^ε‐Trimethylated H3K4 binds to the plant homeobox domain of KDM7B, targeting the N ^ε‐dimethyllysine at H3K9 to the catalytic domain, and thus promoting demethylation 29, 44. To test whether similar targeting may occur with H1.4, promoting activity at H1.4K26, an H1.4 peptide was synthesised containing di‐N ^ε‐methyllysine at K26 and tri‐N ^ε‐methyllysine at K21 (i.e. at the equivalent position in the sequence to K4 in the H3 peptide, Fig. 1B, Table S1). Monomethylation at H1.4K21 has previously been observed by proteomic mass spectrometry 45. With the aim of enhancing activity, the enzyme concentration was increased from 1 μM to 5 μM, and time course analyses were conducted with both KDM7A and KDM7B, both with the new peptide (H1.4(18–32)K21me3K26me2) and the H1.4 peptides methylated only at K26 (Fig. 2B). […] Thus, it appears unlikely that N ^ε‐trimethylation at H1.4K21 promotes demethylation at H1.4K26 by KDM7B.

[7] = tested on: KDM4D (KDM4D1–359); test: MALDI-TOF MS demethylation activity assay, KDM4D; format: biochemical, human; parameters: key: 🟢: Indicates that clear demethylation activity was observed; 🟡: Indicates that low level demethylation activity was observed (<10% conversion after 1 h); 🔴: Indicates no activity under the stated conditions (1 μM KDM, 10 μM peptide); 🟡*: *Indicates demethylation activity was only observed with 5 μM KDM; details: peptide as substrate, 1 μM KDM, 10 μM peptide, 50 mM HEPES pH 7.5, Fe(II) 10 μM, ascorbate 100 μM, 2OG 200 μM, 1 h at 37 °C
Protocol: as §1, §3

[8] = tested on: KDM7A (KDM7A38–480); test: MALDI-TOF MS demethylation activity assay, KDM7A; format: biochemical, human
Protocol: as §1, §2, §4

[9] = tested on: KDM6B (KDM6B1141–1590); test: MALDI-TOF MS demethylation activity assay, KDM6B; format: biochemical, human; parameters: key: 🟢: Indicates that clear demethylation activity was observed; 🟡: Indicates that low level demethylation activity was observed (<10% conversion after 1 h); 🔴: Indicates no activity under the stated conditions (1 μM KDM, 10 μM peptide); 🟡*: *Indicates demethylation activity was only observed with 5 μM KDM; details: peptide as substrate, 1 μM KDM, 10 μM peptide, 50 mM HEPES pH 7.5, Fe(II) 10 μM, ascorbate 100 μM, 2OG 200 μM, 1 h at 37 °C
Protocol: as §1, §2

[10] = tested on: KDM4A (KDM4A1–359); test: MALDI-TOF MS demethylation activity assay, KDM4A; format: biochemical, human; parameters: key: 🟢: Indicates that clear demethylation activity was observed; 🟡: Indicates that low level demethylation activity was observed (<10% conversion after 1 h); 🔴: Indicates no activity under the stated conditions (1 μM KDM, 10 μM peptide); 🟡*: *Indicates demethylation activity was only observed with 5 μM KDM; details: peptide as substrate, 1 μM KDM, 10 μM peptide, 50 mM HEPES pH 7.5, Fe(II) 10 μM, ascorbate 100 μM, 2OG 200 μM, 1 h at 37 °C
Protocol: as §1, §3

[11] = tested on: KDM3A (KDM3A515–1317); test: MALDI-TOF MS demethylation activity assay, KDM3A; format: biochemical, human; parameters: key: 🟢: Indicates that clear demethylation activity was observed; 🟡: Indicates that low level demethylation activity was observed (<10% conversion after 1 h); 🔴: Indicates no activity under the stated conditions (1 μM KDM, 10 μM peptide); 🟡*: *Indicates demethylation activity was only observed with 5 μM KDM; details: peptide as substrate, 1 μM KDM, 10 μM peptide, 50 mM HEPES pH 7.5, Fe(II) 10 μM, ascorbate 100 μM, 2OG 200 μM, 1 mM TCEP, 1 h at 37 °C
Protocol: as §1, §2

[12] = tested on: KDM4B (KDM4B1–359); test: MALDI-TOF MS demethylation activity assay, KDM4B; format: biochemical, human; parameters: key: 🟢: Indicates that clear demethylation activity was observed; 🟡: Indicates that low level demethylation activity was observed (<10% conversion after 1 h); 🔴: Indicates no activity under the stated conditions (1 μM KDM, 10 μM peptide); 🟡*: *Indicates demethylation activity was only observed with 5 μM KDM; details: peptide as substrate, 1 μM KDM, 10 μM peptide, 50 mM HEPES pH 7.5, Fe(II) 10 μM, ascorbate 100 μM, 2OG 200 μM, 1 h at 37 °C
Protocol: as §1, §3

[13] = concentration varied, FDH/NAD+-coupled fluorescence assay, 50 mM HEPES pH 7.5, 0.01% Tween-20, 2OG 200 μM, KDM4A, mean and standard deviation of three independent replicates, SD

Row | Substance | K M [1, 13] [µM] | k cat [1, 13] [s⁻¹] | k cat/K M ([1]; FDH-coupled assay, ratio of k cat (s^−1) and K M (μM)) [M⁻¹ s⁻¹] | demethylation activity on methylated H1.4 peptide [2] | demethylation activity on methylated H1.4 peptide [3] | demethylation activity on methylated H1.4 peptide [4] | demethylation activity on methylated H1.4 peptide [5] | demethylation at increased enzyme concentration (result in words) [6] | demethylation at increased enzyme concentration (result in words) ([6]; listed as H1.4K26me2) | demethylation activity on methylated H1.4 peptide ([6]; peptide as substrate, MALDI-TOF MS, 1 μM KDM (* = only with 5 μM KDM), 10 μM peptide, 50 mM HEPES pH 7.5, Fe(II) 10 μM, ascorbate 100 μM, 2OG 200 μM, 1 h at 37 °C) | demethylation activity on methylated H1.4 peptide [7] | demethylation at increased enzyme concentration (result in words) ([8]; MALDI-TOF MS time course, KDM7A 5 μM, peptide 10 μM, 37 °C) | demethylation activity on methylated H1.4 peptide ([8]; peptide as substrate, MALDI-TOF MS, 1 μM KDM, 10 μM peptide, 50 mM HEPES pH 7.5, Fe(II) 10 μM, ascorbate 100 μM, 2OG 200 μM, 1 mM TCEP, 1 h at 37 °C) | demethylation activity on methylated H1.4 peptide [9] | demethylation activity on methylated H1.4 peptide [10] | demethylation activity on methylated H1.4 peptide [11] | demethylation activity on methylated H1.4 peptide [12]
1 | APATGGV-Kme3-KPHRYRP [H3(29–43)K36me3, histone H3 residues 29–43 peptide with Kme3 at K36, reference compound] | 66.8 ± 5.4 | 0.12 ± 0.004 | 1900 |  |  |  |  |  |  |  |  |  |  |  |  |  | 
2 | TPVKKKAR[Lys(Me2)]SAGAAK [H1.4(18–32)K26me2, peptide of residues 18–32 of histone H1.4 with N ε-dimethyllysine at K26] |  |  |  | 🔴 | 🔴 | 🟢 | 🟢 | demethylation of H1.4(18-32)K26me2 is observed | clear evidence for demethylation | 🟡* | 🟢 | clear evidence for demethylation | 🟡 (Indicates that low level demethylation activity was observed (<10% conversion after 1 h)) | 🔴 | 🟢 | 🔴 | 🟢
